From patent US10265331B2, “Prevention or treatment agent for hepatic fibrosis” (priority 2012, dated 2019)

Legend:
[1] = tested on: chronic hepatitis C model mouse (Cre/loxP/HCV-MxCre Tg mouse); assay: Treatment effect on hepatic fibrosis by histological staining of liver of model mouse; assay type: in vivo
Description: The expression of Cre in the liver of these mice was induced by intraperitoneal injection of polyinosinic-polycytidylic acid [Poly(I:C)] (purchased from GE Healthcare UK Ltd. (Buckinghamshire, England)). That is, 300 μL of poly(I:C) solution (1 mg/mL phosphate buffered saline [PBS]) was intraperitoneally injected, after lapse of 2 months from birth, […] 3 times at 48 hr intervals. HCV gene expression can be induced in almost all hepatocytes by performing this poly(I:C) administration operation once.
A CBP/β-catenin inhibitor was intraperitoneally administered to the CN2-29^(+/−)/MxCre^(+/−) mouse obtained in Example 1, and whether the CBP/β-catenin inhibitor has a treatment effect on hepatic fibrosis was examined by histological staining of the hepatic tissues collected from the model mouse.
A CBP/β-catenin inhibitor was dissolved in commercially available PBS (pH 7.6), and the pH was adjusted again to 7.6 with an aqueous sodium hydroxide solution to give a 40 mg/ml CBP/β-catenin inhibitor solution. This solution (250 μl) was filled in an osmotic pressure pump (ALZET mini-osmotic pump model 2006) and embedded subcutaneously in the back of mouse, whereby a CBP/β-catenin inhibitor was administered at 0.15 μl/hr for 42 days in a sustained manner. For the control group, commercially available PBS (pH7.6) was similarly filled in an osmotic pressure pump and administered as a vehicle by embedding same subcutaneously in the back of mouse.
Autopsy was performed on day 42 from the administration of the CBP/β-catenin inhibitory compound of (1), the liver was removed and histologically searched.
As for staining, the whole image of the tissue was stained and observed by hematoxylin-eosin staining (HE staining), and fiber was stained and observed by silver staining and Azan staining.
A tissue sample was fixed with 4% para-formaldehyde in PBS, embedded in paraffin and sliced (thickness 4 μm). The obtained section was subjected to hematoxylin-eosin staining (HE), silver staining and Azan staining.
Hematoxylin-eosin staining was performed according to the method described in a handbook of histopathological staining (Kiyoyuki Takahashi, Igaku-Shoin).
Silver staining was performed according to the method described in a handbook of histopathological staining (Kiyoyuki Takahashi, Igaku-Shoin).
Azan staining was performed according to the method described in a handbook of histopathological staining (Kiyoyuki Takahashi, Igaku-Shoin).

CBP/β-catenin = CBP/β-catenin (Homo sapiens, UniProt Q92793); conditions: reporter assay of WO 2009/148192; cited from earlier work
Sequence of CBP/β-catenin (Q92793 whole entry): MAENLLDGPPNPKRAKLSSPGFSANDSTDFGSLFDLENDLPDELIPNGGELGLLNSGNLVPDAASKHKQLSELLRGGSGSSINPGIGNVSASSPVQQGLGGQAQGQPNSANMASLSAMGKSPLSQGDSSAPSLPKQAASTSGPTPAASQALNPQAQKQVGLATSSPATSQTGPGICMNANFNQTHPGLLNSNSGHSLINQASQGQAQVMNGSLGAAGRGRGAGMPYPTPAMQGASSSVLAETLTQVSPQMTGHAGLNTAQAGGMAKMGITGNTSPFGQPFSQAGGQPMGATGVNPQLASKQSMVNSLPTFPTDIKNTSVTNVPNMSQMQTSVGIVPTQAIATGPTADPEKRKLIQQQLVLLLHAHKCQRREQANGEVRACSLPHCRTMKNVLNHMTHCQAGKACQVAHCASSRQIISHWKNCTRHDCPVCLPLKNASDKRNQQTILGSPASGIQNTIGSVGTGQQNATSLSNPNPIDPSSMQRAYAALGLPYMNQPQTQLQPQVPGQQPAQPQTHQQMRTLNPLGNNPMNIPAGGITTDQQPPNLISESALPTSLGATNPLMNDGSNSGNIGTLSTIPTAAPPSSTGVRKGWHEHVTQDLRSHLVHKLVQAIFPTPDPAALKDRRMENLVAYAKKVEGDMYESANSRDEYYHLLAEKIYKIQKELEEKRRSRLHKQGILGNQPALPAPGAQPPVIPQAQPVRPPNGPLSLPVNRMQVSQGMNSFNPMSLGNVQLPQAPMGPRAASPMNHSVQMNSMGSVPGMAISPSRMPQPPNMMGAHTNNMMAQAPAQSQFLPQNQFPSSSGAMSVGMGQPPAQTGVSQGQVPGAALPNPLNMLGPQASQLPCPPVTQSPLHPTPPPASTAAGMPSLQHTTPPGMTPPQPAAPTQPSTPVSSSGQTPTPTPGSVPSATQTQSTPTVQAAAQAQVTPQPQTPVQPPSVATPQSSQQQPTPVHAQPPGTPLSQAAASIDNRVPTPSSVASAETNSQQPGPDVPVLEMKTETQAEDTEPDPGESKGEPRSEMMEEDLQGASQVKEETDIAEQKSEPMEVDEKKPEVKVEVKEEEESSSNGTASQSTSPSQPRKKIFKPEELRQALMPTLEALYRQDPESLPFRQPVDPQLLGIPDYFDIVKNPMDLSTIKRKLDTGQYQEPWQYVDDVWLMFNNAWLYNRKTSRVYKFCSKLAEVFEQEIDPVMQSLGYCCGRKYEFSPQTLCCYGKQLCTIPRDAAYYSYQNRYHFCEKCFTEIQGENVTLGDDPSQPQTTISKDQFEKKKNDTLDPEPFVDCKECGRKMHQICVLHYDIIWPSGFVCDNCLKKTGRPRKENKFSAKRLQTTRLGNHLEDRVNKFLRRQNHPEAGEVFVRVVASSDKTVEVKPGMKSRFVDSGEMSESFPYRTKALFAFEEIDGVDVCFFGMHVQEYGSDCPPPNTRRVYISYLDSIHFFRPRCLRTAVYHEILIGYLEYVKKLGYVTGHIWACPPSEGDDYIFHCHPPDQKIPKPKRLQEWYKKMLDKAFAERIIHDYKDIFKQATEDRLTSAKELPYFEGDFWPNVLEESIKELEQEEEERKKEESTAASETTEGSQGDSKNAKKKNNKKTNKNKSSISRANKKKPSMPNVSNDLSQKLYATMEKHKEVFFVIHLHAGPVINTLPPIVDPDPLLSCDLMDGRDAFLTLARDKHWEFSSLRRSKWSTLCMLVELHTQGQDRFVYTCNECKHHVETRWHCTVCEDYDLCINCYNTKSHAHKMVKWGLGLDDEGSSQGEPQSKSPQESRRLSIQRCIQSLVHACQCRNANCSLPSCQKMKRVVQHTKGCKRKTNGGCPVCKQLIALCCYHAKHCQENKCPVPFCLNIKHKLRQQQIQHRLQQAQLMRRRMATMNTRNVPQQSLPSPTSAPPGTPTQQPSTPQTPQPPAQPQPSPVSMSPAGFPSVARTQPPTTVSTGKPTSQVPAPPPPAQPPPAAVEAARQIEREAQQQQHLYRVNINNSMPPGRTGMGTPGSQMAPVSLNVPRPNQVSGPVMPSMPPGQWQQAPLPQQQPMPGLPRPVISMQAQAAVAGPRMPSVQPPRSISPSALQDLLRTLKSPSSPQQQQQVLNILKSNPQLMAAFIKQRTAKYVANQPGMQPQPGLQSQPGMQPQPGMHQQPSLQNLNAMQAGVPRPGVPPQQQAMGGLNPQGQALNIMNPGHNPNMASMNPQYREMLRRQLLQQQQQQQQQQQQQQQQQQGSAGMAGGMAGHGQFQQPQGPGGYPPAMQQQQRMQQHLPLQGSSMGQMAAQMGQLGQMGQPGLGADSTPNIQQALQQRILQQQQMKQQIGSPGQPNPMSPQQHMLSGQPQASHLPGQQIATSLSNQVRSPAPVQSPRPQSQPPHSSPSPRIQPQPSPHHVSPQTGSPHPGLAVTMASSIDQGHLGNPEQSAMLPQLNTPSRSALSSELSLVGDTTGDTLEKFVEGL

With `C[C@H]1C2N(C(=O)CN(C)N2C(=O)NCc2ccccc2)[C@@H](Cc2ccc(OP(=O)(O)O)cc2)C(=O)N1Cc1cccc2cccnc12` (stereo partly drawn) [CBP/β-catenin inhibitory compound, 4-(((6S,9S)-1-(benzylcarbamoyl)-2,9-dimethyl-4,7-dioxo-8-(quinolin-8-ylmethyl)octahydro-1H-pyrazino[2,1-c][1,2,4]triazin-6-yl)methyl)phenyl dihydrogen phosphate] as the compound, how does the “hepatic lobule structure (defibrosing action)” value ([1]; CN2-29(+/-)/MxCre(+/-) mouse, 40 mg/ml solution by subcutaneous osmotic pump, 0.15 μl/hr for 42 days, HE, silver and Azan staining (FIG. 2-4)) read?
Its value is “improved hepatic lobule structure”.

What about the “hepatocyte cord structure of liver tissue, hematoxylin-eosin staining” value ([1]; administration for 42 days, FIG. 2) of the same compound?
The value was “normalized to take a cord-like form”.

What about the “staining of reticular fiber, silver staining” value ([1]; administration for 42 days, FIG. 3) of the same compound?
The value was “weakened and normalized”.

And the “staining of collagenous fibers, Azan staining” value ([1]; administration for 42 days, FIG. 4)?
The value was “normalized”.

And the CBP/β-catenin inhibitory action (CBP/β-catenin)?
The CBP/β-catenin inhibitory action was “confirmed”.
